The source of these data is publication PMC7790953 (ACS chemical neuroscience, 2020).

“Also recorded” adds a separate entry of the source. Where only a bound is given, the exact number is not on record here.

Test [1] concerns the target 9B1. In kind it is binding, mouse. Conditions: for Kd: read-out: Kd as printed in text (9B1); for Ki: read-out: Ki (9B1), pH 7.4.
The target in another test is h9B1. In kind it is binding. Conditions: for Kd: read-out: Kd as printed in text (h9B1); for Ki: read-out: Ki (h9B1), pH 7.4.
Test [2] has as its system 9B1. Conditions: estimated in original report; cited from earlier work.
The test system of the next test is Ab15. Conditions: ref SI Table S2; cited from earlier work.

For `CC(=O)O[C@H]1C=C[C@H]2[C@H]3Cc4ccc(O)c5c4[C@@]2(CCN3C)[C@H]1O5` [6-MAM, 6-monoacetylmorphine], on 9B1 [1], the Kd – broadly, the equilibrium constant for the complex coming apart – was 4.8 nM and the Ki (usually a measure of affinity in units of concentration, obtained from inhibition or displacement) was 4.8 nM. Also, on h9B1, the Kd was determined as 11.9 nM and the Ki was 11.9 nM.

For the molecule `CC(=O)Oc1ccc2c3c1O[C@H]1[C@@H](OC(C)=O)C=C[C@H]4[C@@H](C2)N(C)CC[C@@]341` [heroin], on 9B1 [1], the Kd worked out at 1.3 nM and the inhibitory constant (Ki) is 1.3 nM. Besides, on h9B1, the Kd is 11.8 nM and the Ki turned out to be 11.8 nM.

`COc1ccc2c3c1O[C@H]1C(=O)CC[C@H]4[C@@H](C2)N(C)CC[C@]314` [hydrocodone]: the Kd on 9B1 [1] was 8.2 nM; on h9B1, 39.3 nM. For the same molecule, the values for the Ki on 9B1 [1] and on h9B1 were 8.2 nM and 39.3 nM, respectively.

In the case of `CN1CC[C@]23c4c5ccc(O)c4O[C@H]2[C@@H](O)C=C[C@H]3[C@H]1C5` [morphine], in the test with 9B1 [2], the “Binding constant of 9B1 with morphine” value was ~ 10^9 M^−1.

With `C=CCN1CC[C@]23c4c5ccc(O)c4O[C@H]2C(=O)CC[C@@]3(O)[C@H]1C5` [naloxone], the “Binding with 9B1 in initial screening” value with 9B1 [1] was “did not show significant binding affinities; also recorded: without significant binding”. Besides, in the test with h9B1, the “Binding with h9B1 in initial screening” value is “did not show significant binding affinities; also recorded: without significant binding”.

`O=C1CC[C@@]2(O)[C@H]3Cc4ccc(O)c5c4[C@@]2(CCN3CC2CC2)[C@H]1O5` [naltrexone]: in the test on 9B1 [1], the “Binding with 9B1 in initial screening” value is “did not show significant binding affinities; also recorded: without significant binding” and the Ki is above 10000 nM. Moreover, the IC50 (usually the concentration at which inhibition is half-maximal) with Ab15 is 310 nM. Moreover, in the test on h9B1, the “Binding with h9B1 in initial screening” value is recorded as “did not show significant binding affinities; also recorded: without significant binding” and the Ki was above 10000 nM.

For `COc1ccc2c3c1O[C@H]1C(=O)CC[C@@]4(O)[C@@H](C2)N(C)CC[C@]314` [oxycodone], the values for the Ki on 9B1 [1] and at h9B1 were 2670 nM and 6910 nM, respectively.

With buprenorphine, in the test with 9B1 [1], the “Binding with 9B1 in initial screening” value was “did not show significant binding affinities; also recorded: without significant binding”. Moreover, the “Binding with h9B1 in initial screening” value with h9B1 was “did not show significant binding affinities; also recorded: without significant binding”.
